# From patent US20140039204A1, “7'-PHLOROECKOL COMPOUND FOR HAIR PROLIFERATION AND A COSMETIC COMPOSITION CONTAINING SAME” (PUKYONG NATIONAL UNIVERSITY INDUSTRY-UNIVERSITY COOPERATION …, priority 2011, published 2014)
# What was measured:
# [1] = tested on: Human Hair Follicle Dermal Papilla Cells (HFDPC); assay: MTT assay, cell proliferation of HFDPC; assay type: cell-based
# Description: (§1) Human Hair Follicle Dermal Papilla Cells (HFDPC) were purchased from Promo Cell (Heidelberg, Germany). Cells were cultured in ready-to-use HFDPC medium, which is composed of Basal Medium, Fetal Calf Serum (FCS), Supplement Kit (Promo Cell, Heidelberg, Germany) including basic FGF and insulin. Kit including HEPES Buffer Saline Solution (HBSS), trypsin/EDTA solution and Trypsin Neutralizing Solution (Promo Cell, Heidelberg, Germany) was used for subculture. Subcultured 4th to 6th TFDPC was used for experiments. HaCaT (human epidermal keratinocyte) was cultured in Dulbecco's modified Eagle's medium (DMEM, Gibco BRL,
# (§2) 3-[4,5-dimethylthiazol-2yl]-2,5 diphenyl tetrazolium bromide (MTT) Assay
# (§3) Cell proliferation of HFDPC and HaCaT were measured by using MTT method. After cells were seeded in 96-well with serum-free medium, the cells were incubated for 1 day (1.0×10^4 cells/well). Then, we replaced with new medium and cells were treated with 0.01 μM, 0.05 μM, 0.1 μμM, 0.5 μM and 1 μM samples, then incubated for 5 days. MTT solution (5 mg/ml) was added, the cells were cultivated in 37° C. incubator for 3 hours. Then, the medium were removed and the formazan crystal were dissolved with Dimethyl sulfoxide (DMSO), then the absorbance of the solution were measured.
# As described in the FIG. 1 and FIG. 2, data were expressed as the percentage on the control that doesn't contain the treated samples. […] Different letters as stated on the graph indicate a significant difference in Duncan's multiple range test (p<0.05).
# [2] = tested on: HaCaT (human epidermal keratinocyte); assay: MTT assay, cell proliferation of HaCaT; assay type: cell-based; conditions: 5 days
# Description: as §1, §2, §3
# As described in the FIG. 1 and FIG. 2, data were expressed as the percentage on the control that doesn't contain the treated samples. […]
# [3] = tested on: ERK pathway (MEK ½, p-ERK, total ERK, c-Fos) in HFDPC; assay: Western blot, ERK pathway in HFDPC; assay type: cell-based, human; conditions: 1 hour
# Description: (§4) Western blot assay was performed as standard procedure to study the action mechanism on HFDPC and HaCaT proliferation mediated by 7′-phloroeckol. That is, cells were seeded with serum free medium in 6-well, then cultured for 24 hours (1.0×10^6 cells/well). Then, the cells were replaced with new medium and treated with the samples in the different concentrations for 1 hour to 24 hours. The cells were lysed in RIPA lysis buffer at 4° C. for 10 minutes. 10 μg cell lysate were divided by 10% SDS-polyacrylamide gel electrophoresis, transferred to polyvinylidenefluoride membrane filter and the membranes were blocked with 5% skim milk, hybridized with primary antibodies (1:10,000 dilution). Following the incubation with secondary horseradish peroxidase-conjugated antibodies at room temperature, immunoreactive protein was detected by using chemiluminescence ECL assay kit according to the manufacturer's instructions. Western blot band was visualized by using LAS3000® Luminescent image analyzer (Fujifilm Life Science, Tokyo, Japan).
# (§5) Cells were treated with 7′-phloroeckol for 1 hour to 24 hours to examine the expression of protein by using western blot assay. Graph showing the result of western blot in HFDPC were illustrated in the FIGS. 3 to 6(a) and graphs showing the result of western blot in HaCaT were illustrated in the FIGS. 3 to 6(b). While HFDPC and HaCaT were treated with 7′-phloroeckol for 1 hour in the experiment on the pathway of ERK and AKT relating cell proliferation, HFDPC and HaCaT were treated with 7′-phloroeckol for 24 hours in the experiment on Bcl-2, Bax, p53, caspase-9 and caspase-3 relating apoptosis, then the protein expression were observed.
# (§6) Data were expressed as a ratio of control group that doesn't contain the treated samples, the values are means±SEM, different letters written on the graph indicate a significant defference in Duncan's multiple range test (p<0.05).
# (§7) HFDPC and HaCaT were treated with 7′-phloroeckol and cultured for 1 hour to study activation of 7′-phloroeckol on ERK pathway related to cell proliferation (FIG. 3).
# [4] = tested on: ERK pathway (MEK ½, p-ERK, c-Fos) in HaCaT; assay: Western blot, ERK pathway in HaCaT; assay type: cell-based, human; conditions: 1 hour
# Description: as §4, §5, §6, §7
# [5] = tested on: AKT pathway (PI3K, p-AKT, whole AKT) in HFDPC; assay: Western blot, AKT pathway in HFDPC; assay type: cell-based, human; conditions: 1 hour
# Description: as §4, §5, §6
# After HFDPC and HaCaT were treated with 7′-phloroeckol and cultured for 1 hour to study the activation of 7′-phloroeckol on AKT pathway related cell proliferation (FIG. 4). […] But, there was no difference in whole AKT levels between treated with samples and without samples. Also, 0.5 μM 7′-phloroekol induced 1.75-fold and 1.65-fold levels of PI3K and pAKT in HaCaT.
# [6] = tested on: AKT pathway (PI3K, pAKT) in HaCaT; assay: Western blot, AKT pathway in HaCaT; assay type: cell-based, human; conditions: 0.5 μM, 1 hour
# Description: as §4
# (§8) Cells were treated with 7′-phloroeckol for 1 hour to 24 hours to examine the expression of protein by using western blot assay. […]
# (§9) Data were expressed as a ratio of control group that doesn't contain the treated samples, the values are means±SEM, different letters written on the graph indicate a significant defference in Duncan's multiple range test (p<0.05). […]
# [7] = tested on: Bcl-2, Bax, p53 in HFDPC; assay: Western blot, apoptosis-related factors in HFDPC; assay type: cell-based, human; conditions: 24 hours
# Description: as §4, §5, §6
# (§10) To study the apoptotic effect by 7′-phloroeckol, HFDPC and HaCaT were treated with 7′-phloroeckol, then cultured for 24 hours (FIG. 5).
# [8] = tested on: Bcl-2, Bax, p53 in HaCaT; assay: Western blot, apoptosis-related factors in HaCaT; assay type: cell-based, human; conditions: 24 hours
# Description: as §4, §5, §6, §10
# [9] = tested on: caspase-3 and caspase-9 in HFDPC; assay: Western blot, caspase-3 and caspase-9 in HFDPC; assay type: cell-based, human; conditions: 0.5 μM, 24 hours
# Description: as §4, §8, §9
# [10] = tested on: caspase-3 and caspase-9 in HaCaT; assay: Western blot, caspase-3 and caspase-9 in HaCaT; assay type: cell-based, human; conditions: 24 hours
# Description: as §4, §5, §9
structure (smiles),measurement,setting,value
"Oc1cc(O)cc(Oc2c(O)cc(O)c3c2Oc2c(O)cc(Oc4c(O)cc(O)cc4O)cc2O3)c1 [7′-phloroeckol, 1-(3′,5′-dihydroxyphenoxy)-7-(2″,4″,6-trihydroxyphenoxy)-2,4,9-trihydroxydibenzo-1,4-dioxin]",cell proliferation in HFDPC,"[1]; 0.01-1 μM, 5 days, percentage of control",increased the cell proliferation in dose-dependent manner
same,cell viability compared with 1 μM Minoxidil,"[1]; HFDPC, 1 μM, 5 days",significantly higher cell viability than 1 μM Minoxidil
same,"cell proliferation, 0.5 versus 1 μM","[1]; HFDPC, 0.5 to 1 μM",weren't significantly different
same,cell proliferation in HaCaT,"[2]; 0.01-1 μM, percentage of control",increased the cell proliferation in dose-dependent manner
same,cell viability compared with 0.1 μM Minoxidil,"[2]; HaCaT, 0.1 μM",higher cell viability than 0.1 μM Minoxidil
same,expression of MEK ½ protein versus control group,[3]; 0.05 μM,1.17 fold
same,level of phospho-ERK (p-ERK) versus control group,[3]; 0.05 μM,1.39 fold
same,expression of MEK ½ protein versus control group,[3]; 0.5 μM,1.65 fold
same,level of phospho-ERK (p-ERK) versus control group,[3]; 0.5 μM,1.71 fold
same,expression of c-Fos protein,[3]; 0.05 and 0.5 μM,increased the expression of c-Fos protein
same,"total ERK levels, treated versus untreated",[3]; 0.05 and 0.5 μM,no significant difference
same,expression of MEK ½ protein,[4],increased in dose-dependent manner
same,expression of c-Fos protein,[4],increased in dose-dependent manner
same,expression of p-ERK protein,[4],increased in dose-dependent manner
same,PI3K levels versus control group,[5]; 0.05 μM,1.76 fold
same,expression of phospho AKT (p-AKT) protein versus control group,[5]; 0.05 μM,1.53 fold
same,PI3K levels versus control group,[5]; 0.5 μM,3.07 fold
same,expression of phospho AKT (p-AKT) protein versus control group,[5]; 0.5 μM,2.40 fold
same,"whole AKT levels, treated versus untreated",[5],no difference
same,level of PI3K,[6],1.75 fold
same,level of pAKT,[6],1.65 fold
same,expression level of Bcl-2,[7],decreased
same,expression level of p53,[7],decreased
same,expression of proapoptotic molecule Bax,[7],decreased the expression of proapoptotic molecule Bax
same,expression level of Bcl-2 protein,[7]; dose-dependent,significantly increased
same,expression of Bcl-2 protein versus control group,[8]; 0.05 μM,2.60 fold
same,expression of Bcl-2 protein versus control group,[8]; 0.5 μM,4.21 fold
same,level of Bax versus control,[8]; 0.5 μM,0.67 fold
same,level of p53 versus control,[8]; 0.5 μM,0.72 fold
same,expression of caspase-3 protein versus control group,[9],0.14 fold
same,expression of caspase-9 protein versus control group,[9],0.13 fold
same,expression of caspase-3 protein versus control group,[10]; 0.05 μM,0.88 fold
same,expression of caspase-3 protein versus control group,[10]; 0.5 μM,0.68 fold
same,expression of caspase-9,[10],suppressing the expression
